According to PubChem BioAssay (NCI):
“And” between values parts separate entries of the source, which are not always exact repeats. Identical values can stand only once.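 Assay format: 96-well plates, 48-hour exposure. GI50 marks 50% less growth. TGI: concentration producing complete growth inhibition.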 Where a SMILES comes first, the peptide text is derived from it. [ ]: non-standard residue; d: D form. The star is where a group is joined. Palmitoyl = CCCCCCCCCCCCCCCC(=O)*; Cbz = O=C(OCc1ccccc1)*; Aib = CC(C)(N)C(=O)O; OBn = c1ccc(CO*)cc1

Key:
Assay in all cases: growth of human tumour cells (NCI), 48 h
MDA-MB-231 breast = tested on: MDA-MB-231 breast
SR leukemia = tested on: SR leukemia
NCI-H23 lung = tested on: NCI-H23 lung
SF-539 CNS = tested on: SF-539 CNS
OVCAR-4 ovarian = tested on: OVCAR-4 ovarian
U251 CNS = tested on: U251 CNS
SF-295 CNS = tested on: SF-295 CNS
UO-31 renal = tested on: UO-31 renal
HOP-92 NSCLC = tested on: HOP-92 NSCLC
OVCAR-5 ovarian = tested on: OVCAR-5 ovarian

SMILES	TGI (MDA-MB-231 breast) [µM]	TGI (SR leukemia) [µM]	TGI (NCI-H23 lung) [µM]	TGI (SF-539 CNS) [µM]	TGI (OVCAR-4 ovarian) [µM]	TGI (U251 CNS) [µM]	TGI (SF-295 CNS) [µM]	TGI (UO-31 renal) [µM]	TGI (HOP-92 NSCLC) [µM]	TGI (OVCAR-5 ovarian) [µM]	GI50 (MDA-MB-231 breast) [µM]	GI50 (SR leukemia) [µM]	GI50 (NCI-H23 lung) [µM]	GI50 (SF-539 CNS) [µM]	GI50 (OVCAR-4 ovarian)	GI50 (SF-295 CNS) [µM]	GI50 (UO-31 renal) [µM]	GI50 (HOP-92 NSCLC) [µM]	GI50 (OVCAR-5 ovarian) [µM]
CO/N=C(/C(=O)OC)c1ccccc1COc1ccccc1C(F)(F)F	> 100	79.2	> 100	59.2	57.9	> 100	> 100	> 100	> 100	> 100	–	–	–	–	–	–	–	–	–
Cc1cc(C)nc(NC(=S)Nc2ccc([N+](=O)[O-])cc2)c1	> 100	> 100	> 100	> 100	> 100	> 100	–	> 100	> 100	–	–	–	–	–	–	–	–	–	–
CCOC(=O)/C(C(C)=O)=C(\OC(C)=O)c1ccncc1C(=O)O	> 100	> 100	> 100	> 100	> 100	> 100	> 100	> 100	> 100	> 100	–	–	–	–	–	–	–	–	–
CCOC(=O)c1c2cccccc-2nc1Nc1cccc2c(C)ccnc12	> 10	> 10	> 10	> 10	> 10	> 10	> 10	> 10	> 10	> 10	–	–	–	–	–	–	–	–	–
CCOC(=O)CC/C(=N/Nc1ccc(Cl)cc1[N+](=O)[O-])C(=O)OCC	> 100	> 100	> 100	> 100	> 100	> 100	> 100	> 100	> 100	> 100	–	–	–	–	–	–	–	–	–
Nc1ncc2c(n1)-c1ccccc1OC2N1CCCC1 (centres undefined)	> 100	> 100	> 100	> 100	> 100	> 100	> 100	> 100	> 100	> 100	–	–	–	–	–	–	–	–	–
O=c1c2c(no[n+]2[O-])c2ccccc2n1-c1ccccc1	24.8	> 27.3	5.53	16	> 46.4	16.1	23.5	16.6	17.6	21.9	–	–	–	–	–	–	–	–	–
CC(NC(=O)C(C)(C)NC(=O)C(CC(=O)OCc1ccccc1)NC(=O)OCc1ccccc1)C(N)=O (centres undefined) (Cbz-Asp(OBn)-[Aib]-Ala-NH2; configuration not given here)	> 100	> 100	> 100	> 100	> 100	> 100	> 100	> 100	> 100	> 100	–	–	–	–	–	–	–	–	–
OCCCc1ccc2c(c1)[C@H](CO)[C@@H](c1ccc(O)cc1)O2	> 100	> 100	> 100	> 100	30.4	> 100	> 100	> 100	> 100	> 100	–	–	–	–	–	–	–	–	–
c1ccc(C2=NOC(c3ccccc3)N2C23CC4CC(CC(C4)C2)C3)cc1 (centres undefined)	> 10	> 10	> 10	> 10	> 10	> 10	> 10	–	> 10	> 10	–	–	–	–	–	–	–	–	–
CCOC(=O)C(NC(=O)CC)(N1CCN(c2cc3c(cc2F)c(=O)c(C(=O)O)cn3C2CC2)CC1)C(F)(F)F (centres undefined)	> 100	> 100	> 100	> 100	> 100	> 100	> 100	> 100	> 100	> 100	–	–	–	–	–	–	–	–	–
CCCCCCCCCCCCCCCC(=O)N1CCCC1C(=O)NCC(=O)NC(Cc1ccccc1)C(=O)N1CCCC1C(=O)NC(CO)C(=O)NC(Cc1ccc(O)cc1)C(=O)NC(CCCCN)C(=O)NC(CC(C)C)C(=O)NC(CCCN=C(N)N)C(=O)N1CCCC1C(=O)NCC(N)=O (centres undefined) (Palmitoyl-PGFPSYKLRPG-NH2; configuration not given here)	32.8	44.9	36.6	47.9	81.8	–	75.9	56.8	38.9	37.8	17.5	16.5	18.7	20.5	30.1 µM	26.5	20.5	18.7	17.1
CC12c3c4ccc(C=O)c3Oc3ccc(C=O)c(c31)Oc1ccc(C=O)c(c12)O4	> 25	> 25	> 25	> 25	> 25	> 25	> 25	> 25	> 25	> 25	–	–	–	–	–	–	–	–	–
O=[N+]([O-])c1cc2oc(CSc3ccccc3)nc2cc1Cl	76.9	> 100	88.6	> 100	> 100	66.6	93.9	87.3	> 100	> 100	–	–	–	–	–	–	–	–	–
CC(C)(CO)CNc1nc(N)nc(Cl)c1/C=N/O	> 100	> 100	> 100	> 100	> 100	> 100	> 100	> 100	84.7	> 100	–	–	–	–	–	–	–	–	–
CN1CC[C@]2(c3cccc(O)c3)CC(=O)/C(=C/c3ccccc3)[C@@H]1C2	7.29	8.68	36.8	6.1	16.9	8.36	13.2	10.4	9.93	29.7	–	–	–	–	–	–	–	–	–
O=C(O)C(O)C(O)C(O)C(O)CO (centres undefined)	> 100	> 100	> 100	> 100	> 100	> 100	> 100	> 100	> 100	> 100	–	–	–	–	–	–	–	–	–

SMILES	TGI (MDA-MB-231 breast) [µM]	TGI (SR leukemia) [µM]	TGI (NCI-H23 lung) [µM]	TGI (SF-539 CNS) [µM]	TGI (OVCAR-4 ovarian) [µM]	TGI (U251 CNS) [µM]	TGI (SF-295 CNS) [µM]	TGI (UO-31 renal) [µM]	TGI (HOP-92 NSCLC) [µM]	TGI (OVCAR-5 ovarian) [µM]	GI50 (MDA-MB-231 breast) [µM]	GI50 (SR leukemia) [µM]	GI50 (NCI-H23 lung) [µM]	GI50 (SF-539 CNS) [µM]	GI50 (OVCAR-4 ovarian)	GI50 (SF-295 CNS) [µM]	GI50 (UO-31 renal) [µM]	GI50 (HOP-92 NSCLC) [µM]	GI50 (OVCAR-5 ovarian) [µM]
CCc1n[nH]c(=O)n1-c1ccc2ccccc2c1	> 100	> 100	> 100	> 100	> 100	> 100	> 100	> 100	> 100	> 100	–	–	–	–	–	–	–	–	–
O=C1CSC2(CC(/C=C/c3cccs3)=NN2c2cccc(S(=O)(=O)O)c2)N1c1nc2ccccc2s1 (centres undefined)	> 100	> 100	> 100	> 100	> 100	> 100	–	> 100	> 100	> 100	–	–	–	–	–	–	–	–	–
C[C@@H]1CCC2[C@@H](C)[C@@H](O[C@H]3O[C@@H]4O[C@@]5(C)CCC6[C@H](C)CCC([C@H]3C)[C@]64OO5)O[C@@H]3O[C@@]4(C)CCC1[C@@]23OO4 (some centres undefined)	> 25	> 25	> 25	> 25	> 25	> 25	> 25	> 25	> 25	> 25	–	–	–	–	–	–	–	–	–
O=C(c1ccccc1)c1ccc2c(c1)NC(=O)c1ccccc1SSc1ccccc1C(=O)N2	> 100	> 100	> 100	> 100	> 100	> 100	> 100	> 100	> 100	> 100	–	–	–	–	–	–	–	–	–
CC1=C(C#N)c2nc3ccccc3n2C(=O)C1(C)CCO (centres undefined)	> 100	> 100	> 100	> 100	> 100	> 100	> 100	> 100	> 100	> 100	–	–	–	–	–	–	–	–	–
CCN(CC)c1ccc(/C=C/c2ccnc3ccccc23)cc1	> 100	> 100	> 100	> 100	> 100	> 100	> 100	> 100	> 100	> 100	–	–	–	–	–	–	–	–	–
COc1ccc(C(=O)NCCN(C)C)c2nc3ccccc3cc12	10.9	1.5	2.2	8.16	6.49	7.62	6.34	5.14	8.05	8.06	–	–	–	–	–	–	–	–	–
CC(C)(C)N=C(N)NC#N	> 100	> 100	> 100	> 100	> 100	> 100	–	> 100	> 100	> 100	–	–	–	–	–	–	–	–	–
Cc1ccc(/C=C2/N=C(N/N=C\C(O)C(O)C(O)C(O)CO)NC2=O)cc1 (centres undefined)	> 100	> 100	> 100	> 100	> 100	> 100	> 100	> 100	> 100	> 100	–	–	–	–	85.1 µM and > 100 µM and 39.2 µM	–	–	–	–
CCN(C(=O)N[C@@H](C)C(=O)N[C@@H](Cc1ccccc1)C(=O)OC)c1ccccc1	> 100	> 100	> 100	> 100	> 100	> 100	> 100	> 100	68	> 100	–	–	–	–	–	–	–	–	–
CC1(C)CCc2c(ccc(C(=O)/C=C/c3ccc(O)cc3)c2O)O1	18.9	30.5	22.7	22	19.6	20.1	26.1	25.5	24.4	21.7	–	–	–	–	–	–	–	–	–
O=C(CCSC1=NCCCN1)c1ccc(F)cc1	49.1	13.3	43.4	35.9	> 100	44.8	97.3	20.6	40.6	29.9	–	–	–	–	–	–	–	–	–
COc1cc(C=O)ccc1O	> 100	> 100	> 100	> 100	> 100	> 100	> 100	> 100	> 100	> 100	–	–	–	–	–	–	–	–	–
Cc1nc2ccccc2c(-n2cccn2)c1CCn1cccn1	> 100	> 100	> 100	> 100	> 100	> 100	> 100	3.43	> 100	> 100	–	–	–	–	–	–	–	–	–
COC1OC2COC(c3ccccc3)OC2C(O)C1OC(=S)c1ccccc1 (centres undefined)	> 100	85.5	> 100	87.1	> 100	12.9	> 100	> 100	> 100	> 100	–	–	–	–	–	–	–	–	–
COc1cc2c(cc1OCCCN1C(=O)c3cccc4cccc(c34)C1=O)N=C[C@@H]1CCCN1C2=O	> 100	25.5	> 100	> 100	> 81.4	> 100	> 100	> 71	> 58.2	> 100	–	–	–	–	–	–	–	–	–
COc1ccc(/C=N/NC(=O)c2ccc(O)c(CN(C)C)c2)cc1	> 100	> 100	> 100	> 100	> 100	> 100	> 100	> 100	> 100	> 100	–	–	–	–	–	–	–	–	–
